Tests used:
Test in all cases: Bliss excess, mean over the matrix (fraction); higher = more synergy
IST-MEL1 (Melanoma) = system: IST-MEL1 (Melanoma)
Summary of the method: (§1)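 After 24 hours at 37°C and 5% CO2 in 1536-well plates, cells in DMEM/F12 or RPMI plus 10% FBS received two-drug dose matrices for 72 hours. Viability came from CellTiter-Glo 2.0 luminescence and was scaled as inhibition, anchored at 0 by vehicle wells and at 1 by blank wells. Combination Emax is taken as the second-highest inhibition in the matrix, and Bliss excess as the observed combination effect less EA + EB − EA·EB, with EA and EB the single-agent effects.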

[1] = system: MOLP-8 (Plasma Cell Myeloma)
Summary of the method: as §1

[2] = system: LCLC-103H (Non-Small Cell Lung Carcinoma)
Summary of the method: as §1

T47D (Breast Carcinoma) = system: T47D (Breast Carcinoma)
Summary of the method: as §1

WM35 (Melanoma) = system: WM35 (Melanoma)
Summary of the method: as §1

UACC-257 (Melanoma) = system: UACC-257 (Melanoma)
Summary of the method: as §1

NCI-H2373 (Mesothelioma) = system: NCI-H2373 (Mesothelioma)
Summary of the method: as §1

[3] = system: DBTRG-05MG (Glioblastoma)
Summary of the method: as §1

[4] = system: MM1S (Plasma Cell Myeloma)
Summary of the method: as §1

[5] = system: NCI-H1341 (Small Cell Lung Carcinoma)
Summary of the method: as §1

NB1 (Neuroblastoma) = system: NB1 (Neuroblastoma)
Summary of the method: as §1

[6] = system: MDA-MB-415 (Breast Carcinoma)
Summary of the method: as §1

[7] = system: PA-TU-8988T (Pancreatic Carcinoma)
Summary of the method: as §1

GAK (Melanoma) = system: GAK (Melanoma)
Summary of the method: as §1

SK-N-SH (Neuroblastoma) = system: SK-N-SH (Neuroblastoma)
Summary of the method: as §1

[8] = system: MS-1 (Small Cell Lung Carcinoma)
Summary of the method: as §1

[9] = system: HT-1080 (Other Solid Carcinomas)
Summary of the method: as §1

[10] = system: PL4 (Pancreatic Carcinoma)
Summary of the method: as §1

[11] = system: NAMALWA (Burkitt's Lymphoma)
Summary of the method: as §1

SMILES | Bliss excess (IST-MEL1 (Melanoma)) | Bliss excess [1] | Bliss excess [2] | Bliss excess (T47D (Breast Carcinoma)) | Bliss excess (WM35 (Melanoma)) | Bliss excess (UACC-257 (Melanoma)) | Bliss excess (NCI-H2373 (Mesothelioma)) | Bliss excess [3] | Bliss excess [4] | Bliss excess [5] | Bliss excess (NB1 (Neuroblastoma)) | Bliss excess [6] | Bliss excess [7] | Bliss excess (GAK (Melanoma)) | Bliss excess (SK-N-SH (Neuroblastoma)) | Bliss excess [8] | Bliss excess [9] | Bliss excess [10] | Bliss excess [11]
CN(C)CCCOc1ccc(-c2ccc3ncc4c(c3c2)n(C2CCOCC2)c(=O)n4C)cn1 [AZD0156] + O=C(c1cc(Cc2n[nH]c(=O)c3ccccc23)ccc1F)N1CCN(C(=O)C2CC2)CC1 [Olaparib] (first compound max 3 µM, partner max 3 µM) | 0.0034 | 0.0151 | 0.0713 | 0.0296 | -0.0272 | -0.0055 | 0.0178 | -0.0207 | 0.0231 | -0.0165 | -0.0721 | 0.0017 | 0.0235 | 0.0131 | -0.0043 | 0.142 | -0.0054 | 0.018 | 0.117
C[C@@H](c1ccc2nccn2c1)n1nnc2ncc(-c3cnn(C)c3)nc21 [Savolitinib] + CC1(C)CCC(CN2CCN(c3ccc(C(=O)NS(=O)(=O)c4ccc(NCC5CCOCC5)c([N+](=O)[O-])c4)c(Oc4cnc5[nH]ccc5c4)c3)CC2)=C(c2ccc(Cl)cc2)C1 [Venetoclax] (first compound max 1 µM, 7x7, partner max 1 µM) | -0.0306 | -0.0194 | -0.0518 | -0.0753 | -0.065 | -0.0766 | -0.0512 | -0.0572 | -0.0663 | 0.0535 | -0.0516 | -0.0258 | -0.0763 | -0.0762 | -0.0289 | -0.0098 | -0.0676 | -0.105 | -0.0098
CC(=O)c1c(C)c2cnc(Nc3ccc(N4CCNCC4)cn3)nc2n(C2CCCC2)c1=O [Palbociclib] + Cc1c2c(nn1C)CSCc1cc(n(C)n1)CSc1cc(c3ccccc3c1)OCCCc1c(C(=O)O)n(C)c3c-2c(Cl)ccc13 [AZD5991] (first compound max 10 µM, 7x7, partner max 1 µM) | -0.0328 | 0.0347 | -0.0151 | 0.0375 | -0.0198 | -0.026 | -0.0396 | -0.0561 | -0.0482 | -0.031 | -0.061 | -0.113 | -0.0361 | -0.0234 | -0.0257 | -0.0451 | -0.0592 | -0.0458 | -0.0139
Cn1cnc2c(F)c(Nc3ccc(Br)cc3Cl)c(C(=O)NOCCO)cc21 [Selumetinib] + CC(C)n1c(=O)n(C)c2cnc3cc(F)c(-c4ccc(OCCCN5CCCCC5)nc4)cc3c21 [AZD1390] (first compound max 10 µM, 7x7, partner max 0.3 µM) | -0.013 | -0.0274 | -0.0154 | -0.0468 | -0.0551 | -0.0099 | -0.0044 | 0.0213 | 0.0258 | -0.0071 | -0.0646 | -0.047 | -0.0269 | -0.0415 | -0.0624 | -0.02 | -0.0697 | 0.0102 | -0.0102
CS(=O)(=O)CCNCc1ccc(-c2ccc3ncnc(Nc4ccc(OCc5cccc(F)c5)c(Cl)c4)c3c2)o1 [Lapatinib] + C[C@@H](Oc1cc(-c2cnn(C3CCNCC3)c2)cnc1N)c1c(Cl)ccc(F)c1Cl [Crizotinib] (first compound max 10 µM, 7x7, partner max 10 µM) | -0.0095 | 0.012 | -0.0152 | -0.0223 | -0.0446 | -0.0442 | -0.0258 | -0.0334 | 0.0395 | 0.0876 | 0.0158 | -0.0417 | -0.0244 | -0.0066 | -0.0618 | -0.0784 | -0.012 | 0.0434 | -0.0528
COc1nnc2ccc(N3CCC(c4ccc(OCCN5CCN(C)C(=O)[C@H]5C)cc4)CC3)nn12 [AZD5153] + C=CCn1c(=O)c2cnc(Nc3ccc(N4CCN(C)CC4)cc3)nc2n1-c1cccc(C(C)(C)O)n1 [AZD1775] (first compound max 1 µM, partner max 1 µM) | -0.0398 | -0.0204 | -0.0128 | -0.0262 | -0.0242 | 0.0034 | -0.0589 | -0.0053 | -0.0412 | -0.0121 | -0.0461 | -0.0878 | -0.0738 | -0.158 | -0.0602 | -0.0687 | -0.0362 | 0.0251 | -0.0633
COc1nnc2ccc(N3CCC(c4ccc(OCCN5CCN(C)C(=O)[C@H]5C)cc4)CC3)nn12 [AZD5153] + Cn1cnc2c(F)c(Nc3ccc(Br)cc3Cl)c(C(=O)NOCCO)cc21 [Selumetinib] (first compound max 1 µM, 7x7, partner max 10 µM) | 0.0304 | 0.0094 | 0.0325 | 0.0101 | 0.0702 | 0.0284 | -0.0666 | -0.014 | 0.109 | -0.0282 | -0.0454 | 0.0512 | 0.0423 | -0.0532 | -0.0142 | -0.0665 | 0.0587 | -0.0089 | -0.0375
CC(=O)c1c(C)c2cnc(Nc3ccc(N4CCNCC4)cn3)nc2n(C2CCCC2)c1=O [Palbociclib] + Cn1cnc2c(F)c(Nc3ccc(Br)cc3Cl)c(C(=O)NOCCO)cc21 [Selumetinib] (first compound max 10 µM, 7x7, partner max 10 µM) | 0.052 | 0.0926 | 0.0012 | -0.0328 | -0.0282 | -0.0087 | -0.0239 | 0.0013 | -0.0061 | -0.0199 | -0.0669 | -0.0588 | 0.0449 | 0.0221 | -0.0238 | -0.0601 | -0.0519 | -0.0553 | -0.0123
NC1(C(=O)N[C@@H](CCO)c2ccc(Cl)cc2)CCN(c2ncnc3[nH]ccc23)CC1 [Capivasertib] + CCN(CCO)CCCOc1ccc2c(Nc3cc(CC(=O)Nc4cccc(F)c4)[nH]n3)ncnc2c1 [AZD2811] (first compound max 10 µM, 7x7, partner max 1 µM) | -0.0347 | 0.0345 | -0.0032 | 0.071 | -0.0471 | 0.0028 | -0.079 | 0.03 | 0.0257 | -0.0036 | -0.0284 | 0.0001 | 0.103 | -0.0181 | -0.0455 | 0.0059 | -0.0498 | 0.0317 | 0.0887
NC1(C(=O)N[C@@H](CCO)c2ccc(Cl)cc2)CCN(c2ncnc3[nH]ccc23)CC1 [Capivasertib] + COc1nnc2ccc(N3CCC(c4ccc(OCCN5CCN(C)C(=O)[C@H]5C)cc4)CC3)nn12 [AZD5153] (first compound max 10 µM, 7x7, partner max 1 µM) | -0.0143 | 0.0092 | -0.0028 | 0.0139 | -0.0195 | -0.0072 | 0.0349 | -0.0239 | 0.0564 | 0.0383 | 0.0085 | 0.0467 | -0.0603 | -0.0323 | 0.0362 | -0.0737 | -0.0558 | -0.0138 | -0.0058
Cn1cnc2c(F)c(Nc3ccc(Br)cc3Cl)c(C(=O)NOCCO)cc21 [Selumetinib] + CCN(CCO)CCCOc1ccc2c(Nc3cc(CC(=O)Nc4cccc(F)c4)[nH]n3)ncnc2c1 [AZD2811] (first compound max 10 µM, 7x7, partner max 1 µM) | -0.0203 | -0.017 | -0.0104 | -0.0735 | -0.0566 | 0.0212 | -0.0082 | 0.016 | 0.0812 | 0.0264 | -0.0138 | -0.0064 | -0.0527 | -0.069 | -0.0557 | -0.0261 | -0.0315 | 0.0097 | 0.0244
C[C@@H](c1ccc2nccn2c1)n1nnc2ncc(-c3cnn(C)c3)nc21 [Savolitinib] + Cc1c2c(nn1C)CSCc1cc(n(C)n1)CSc1cc(c3ccccc3c1)OCCCc1c(C(=O)O)n(C)c3c-2c(Cl)ccc13 [AZD5991] (first compound max 1 µM, 7x7, partner max 1 µM) | -0.0243 | -0.0219 | -0.0417 | -0.0426 | -0.0503 | -0.0194 | -0.0618 | -0.0596 | 0.021 | 0.0274 | -0.0355 | -0.0462 | -0.0205 | 0.0201 | -0.0501 | -0.0062 | -0.0475 | -0.0492 | -0.05
COc1nnc2ccc(N3CCC(c4ccc(OCCN5CCN(C)C(=O)[C@H]5C)cc4)CC3)nn12 [AZD5153] + Cc1c2c(nn1C)CSCc1cc(n(C)n1)CSc1cc(c3ccccc3c1)OCCCc1c(C(=O)O)n(C)c3c-2c(Cl)ccc13 [AZD5991] (first compound max 1 µM, 7x7, partner max 1 µM) | -0.0116 | -0.0051 | 0.0179 | 0.0003 | 0.0634 | -0.019 | -0.0104 | -0.0296 | 0.15 | 0.0366 | -0.0211 | 0.031 | 0.005 | -0.0183 | -0.0334 | -0.0151 | -0.0668 | -0.0242 | -0.0536

Source: the supplement of paper PMC11061612
